Consider twelve compounds from BindingDB's records for doi:10.1021/jm00124a027 (Syntex Research, 1989).

The assay can be described thus: Inhibition of thromboxane A2 synthetase as reduced ADP-induced aggregation of human platelet rich plasma in the presence of pig aortal microsomes.
As for `Cn1cc(/C=C/C(=O)O)cc1Cn1ccnc1`, the half-inhibitory concentration (IC50) (as a rule, the concentration that gives 50% inhibition) came out at 4.6 µM.

With `C/C(=C/c1ccc(Cc2cccnc2)n1CC(C)(C)C)C(=O)O`, the IC50 is 78 µM. As for `Cn1c(/C=C/C(=O)O)ccc1Cn1ccnc1`, the figure is 3.8 µM.

For the compound `C/C(=C/c1ccc(Cc2cccnc2)n1C(C)C)C(=O)O`, the half-inhibitory concentration (IC50) was 2.1 µM. The result for `C/C(=C/c1ccc(Cn2ccnc2)n1C)C(=O)O` reads 1 µM; that for `C/C(=C\c1cc(Cn2ccnc2)n(C)c1)C(=O)O`, 1.6 µM. The result for `C/C(=C/c1ccc(Cc2cccnc2)n1-c1ccccc1)C(=O)O` reads 24 µM; that for `COC(=O)[C@@H]1CC1c1ccc(Cn2ccnc2)n1C` (some centres not stated), 9.1 µM. The result for `C/C(=C/c1ccc(Cc2cccnc2)n1C)C(=O)O` reads 0.05 µM; that for `CCn1c(/C=C(/C)C(=O)O)ccc1Cc1cccnc1`, 0.042 µM; that for `C/C(=C/c1cc(Cc2cccnc2)n(C(C)(C)C)c1)C(=O)O`, 0.044 µM. `C/C(=C\c1ccc(Cn2ccnc2)[nH]1)C(=O)O`: the IC50 was determined as 9.1 µM.
